Experimental data reported in ChEMBL document CHEMBL4368896, “Thiosemicarbazones with tyrosinase inhibitory activity” (Medchemcomm, 2019).
pIC50, pKi: −log10 of the molar value. Several values for one entry are separate records, joined by “and”; a condition that tells them apart may be missing. Equal entries are not always repeated.

Assays:
[1] = target: T1, Tyrosinase (Agaricus bisporus, UniProt O42713); assay: Inhibition of mushroom tyrosinase using L-dopa as substrate measured for 150 secs by spectrophotometric analysis
T1 sequence (O42713 whole entry): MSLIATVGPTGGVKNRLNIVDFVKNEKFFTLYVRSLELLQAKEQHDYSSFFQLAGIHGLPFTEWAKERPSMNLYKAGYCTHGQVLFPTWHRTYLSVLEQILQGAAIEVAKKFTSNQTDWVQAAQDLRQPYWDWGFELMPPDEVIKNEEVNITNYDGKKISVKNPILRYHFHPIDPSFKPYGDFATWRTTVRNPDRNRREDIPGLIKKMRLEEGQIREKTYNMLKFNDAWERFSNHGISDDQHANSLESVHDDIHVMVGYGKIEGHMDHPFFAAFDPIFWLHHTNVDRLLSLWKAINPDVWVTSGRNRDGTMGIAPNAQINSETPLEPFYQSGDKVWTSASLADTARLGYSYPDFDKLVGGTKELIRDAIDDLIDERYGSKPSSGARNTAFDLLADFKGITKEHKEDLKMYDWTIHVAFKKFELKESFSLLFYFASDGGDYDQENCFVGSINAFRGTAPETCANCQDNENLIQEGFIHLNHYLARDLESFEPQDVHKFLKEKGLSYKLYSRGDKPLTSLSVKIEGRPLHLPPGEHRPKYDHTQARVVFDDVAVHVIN

[2] = target: T1, Tyrosinase
[3] = target: T1, Tyrosinase; assay: Inhibition of mushroom tyrosinase using L-dopa as substrate preincubated for 10 mins followed by substrate addition and measured for 1 min
[4] = target: T1, Tyrosinase; assay: Inhibition of mushroom tyrosinase monophenolase activity using L-tyrosine as substrate after 10 mins by spectrophotometric analysis
[5] = target: T1, Tyrosinase; assay: Inhibition of mushroom tyrosinase diphenolase activity using L-dopa as substrate after 10 mins by spectrophotometric analysis
[6] = target: T1, Tyrosinase; assay: Reversible inhibition of mushroom tyrosinase after 10 mins by Lineweaver-Burk plot analysis
[7] = target: T2, Tyrosinase (Agaricus bisporus) (UniProt O42713); assay: Mixed-type inhibition of mushroom tyrosinase after 10 mins by Lineweaver-Burk plot analysis
T2 sequence (whole entry): T1 sequence (O42713 whole entry)

[8] = target: T3, Tyrosinase (Mus musculus, UniProt P11344); assay: Inhibition of tyrosinase in mouse B16 cells using L-DOPA as substrate preincubated for 72 hrs followed by substrate addition and measured after 30 mins; type: cell-based
T3 sequence (P11344 whole entry): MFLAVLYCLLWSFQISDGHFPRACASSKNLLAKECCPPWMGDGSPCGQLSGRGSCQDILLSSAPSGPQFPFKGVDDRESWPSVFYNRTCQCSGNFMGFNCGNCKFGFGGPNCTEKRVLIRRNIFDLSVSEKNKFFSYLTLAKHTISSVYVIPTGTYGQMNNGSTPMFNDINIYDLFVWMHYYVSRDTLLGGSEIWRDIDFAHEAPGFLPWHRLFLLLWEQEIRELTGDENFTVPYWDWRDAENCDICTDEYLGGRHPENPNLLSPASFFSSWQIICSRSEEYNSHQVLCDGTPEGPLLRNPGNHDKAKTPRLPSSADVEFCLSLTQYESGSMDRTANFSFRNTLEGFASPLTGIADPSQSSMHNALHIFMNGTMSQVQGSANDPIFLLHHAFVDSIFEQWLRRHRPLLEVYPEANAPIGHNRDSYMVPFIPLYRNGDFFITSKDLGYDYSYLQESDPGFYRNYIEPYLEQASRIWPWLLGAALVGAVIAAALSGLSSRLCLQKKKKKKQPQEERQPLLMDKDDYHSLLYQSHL

[9] = target: T1, Tyrosinase; assay: Inhibition of mushroom tyrosinase using L-dopa as substrate preincubated for 2 mins followed by substrate addition and measured for 5 mins by spectrophotometric analysis
[10] = target: T1, Tyrosinase; remark: listed apart in the source
Description: (§5) Reversible mixed-type inhibition of mushroom tyrosinase using L-dopa as substrate by Lineweaver-Burk plot analysis

[11] = target: T2, Tyrosinase (Agaricus bisporus)
Description: as §5

[12] = target: T1, Tyrosinase; assay: Inhibition of mushroom tyrosinase monophenolase activity using L-tyrosine as substrate
[13] = target: T1, Tyrosinase; assay: Non-competitive inhibition of mushroom tyrosinase by Lineweaver-Burk plot analysis
[14] = target: T2, Tyrosinase (Agaricus bisporus); assay: (§1) Mixed-type inhibition of mushroom tyrosinase by Lineweaver-Burk plot analysis
[15] = target: T1, Tyrosinase; assay: as §1
[16] = target: T2, Tyrosinase (Agaricus bisporus); assay: (§2) Reversible mixed-type inhibition of mushroom tyrosinase by Lineweaver-Burk plot analysis
[17] = target: T1, Tyrosinase; assay: as §2
[18] = target: T1, Tyrosinase; assay: Reversible competitive inhibition of mushroom tyrosinase after 10 mins by Lineweaver-Burk plot analysis
[19] = target: T1, Tyrosinase; assay: Reversible competitive inhibition of mushroom tyrosinase using L-dopa as substrate preincubated for 2 mins followed by substrate addition and measured for 5 mins by Lineweaver-Burk plot analysis
[20] = target: T1, Tyrosinase; assay: Non-competitive inhibition of mushroom tyrosinase using L-dopa as substrate preincubated for 5 mins followed by substrate addition and measured for 5 mins
[21] = target: T2, Tyrosinase (Agaricus bisporus); assay: (§3) Mixed-type inhibition of mushroom tyrosinase using L-dopa as substrate preincubated for 5 mins followed by substrate addition and measured for 3 mins
[22] = target: T1, Tyrosinase; assay: as §3
[23] = target: T2, Tyrosinase (Agaricus bisporus); assay: (§4) Mixed-type inhibition of mushroom tyrosinase using L-tyrosine as substrate by Lineweaver-Burk plot analysis
[24] = target: T1, Tyrosinase; assay: as §4

`NC(=S)N/N=C/c1cc(COC(=O)C2CCCCC2)cs1` gave a pIC50 [1] of 6.87.

`CCCCC(=O)OCc1csc(/C=N/NC(N)=S)c1` gave a pIC50 [1] of 6.96.

`C/C(=N\NC(N)=S)c1cccs1` gave a pIC50 [2] of 5.85.

`COc1ccc(/C=N/NC(N)=S)cc1` was tested, and the pIC50 [3] was 5.83, the pIC50 [4] was 5.15 and the pIC50 [5] was 5.58. The pKi [6] was 5.83, the Kis [7] was 15.1 µM and the pIC50 [8] was 3.86.

In the case of `CCCOc1ccc(/C=N/NC(N)=S)cc1`, the pIC50 [3] was 5.52.

In the case of `CNC(=S)N/N=C(\C)c1ccc(OC)cc1`, the pIC50 [9] was 4.19.

With `COc1ccc(/C=N/NC(N)=S)cc1O` the pIC50 [3] was 5.31.

`NC(=S)N/N=C/c1ccccc1O` showed a pIC50 [3] of 6.42.

Work on `CCC(=O)OCc1csc(/C=N/NC(N)=S)c1` yielded a pIC50 [1] of 6.79.

Molecule `COCc1csc(/C=N/NC(N)=S)c1` has a pIC50 [1] of 6.13.

`NC(=S)N/N=C/c1ccc(Oc2ccccc2)cc1` gave a pIC50 [3] of 6.01.

With `NC(=S)N/N=C/c1cccs1` the pIC50 [2] was 6.37, the pKi [10] was 3.78 and the Kis [11] was 2.59 µM.

For `CN(C)c1ccc(/C=N/NC(=S)Nc2ccccc2)cc1`, the pIC50 [12] was 5.75, the pKi [13] was 6.11 and the pIC50 [2] was 6.10.

In the case of `NC(=S)N/N=C/c1ccc(O)cc1`, the pIC50 [3] was 6.39, the pIC50 [4] was 6.12 and the pIC50 [5] was 5.42. For the same molecule, the pKi [6] was 5.55 and the Kis [7] was 6.79 µM.

`NC(=S)N/N=C/c1cc(CO)cs1` was tested, and the pIC50 [1] was 6.17.

In the case of `C/C(=N\NC(N)=S)c1ccc[nH]1`, the pIC50 [2] was 5.38.

For `CC(C)/C(=N\NC(N)=S)c1ccccc1`, the pIC50 [8] was > 5.64.

Work on `CCCC(=O)OCc1csc(/C=N/NC(N)=S)c1` yielded a pIC50 [1] of 6.98.

With `CCCCCCCCCCC/C(=N\NC(N)=S)c1ccccc1` the pIC50 [8] was > 6.00.

`NC(=S)N/N=C/c1ccc(OCOCCO)cc1` was tested, and the pIC50 [3] was 6.43.

Work on `NC(=S)N/N=C/c1cc(COC(=O)c2ccccc2)cs1` yielded a pIC50 [1] of 7.17.

Molecule `CCCC/C(=N\NC(N)=S)c1ccccc1` has a pIC50 [8] of 5.92.

For `NC(=S)N/N=C/c1ccc[nH]1`, the pIC50 [2] was 5.40, the pKi [10] was 7.10 and the Kis [11] was 0.29 µM.

With `CCCCOc1ccc(/C=N/NC(N)=S)cc1` the pIC50 [3] was 5.88.

`NC(=S)N/N=C/c1ccc(O)cc1O` was tested, and the pIC50 [3] was 6.74.

In the case of `CC/C(=N\N=C(\N)S)c1ccccc1`, the pIC50 [8] was > 6.00.

`CC(C)COc1ccc(/C=N/NC(N)=S)cc1` showed a pIC50 [3] of 5.66.

With `C/C(=N\NC(N)=S)c1ccco1` the pIC50 [2] was 6.08.

`NC(=S)N/N=C/c1ccc(Cl)cc1` was tested, and the pIC50 [12] was 5.17, the Kis [14] was 2.49 µM and the pKi [15] was 5.90. It also gave a pIC50 [2] of 5.74.

Work on `NC(=S)N/N=C/c1ccc(O)cc1Br` yielded a pIC50 [3] of 6.48.

`CC(=O)OCc1csc(/C=N/NC(N)=S)c1` showed a pIC50 [1] of 6.47.

In the case of `NC(=S)N/N=C/c1ccc(OCOC(CO)CO)cc1`, the pIC50 [3] was 6.03.

`NC(=S)N/N=C/c1cccc(O)c1` was tested, and the pIC50 [3] was 5.41.

`NC(=S)N/N=C/C=C/c1ccccc1` showed a Kis [16] of 8.85 µM and a pKi [17] of 5.35.

Work on `N=C(S)N/N=C/c1ccc(Oc2ccc(F)cc2)cc1` yielded a pIC50 [3] of 5.84.

For `CNC(=S)N/N=C(\C)c1ccc(OC)cc1O`, the pIC50 [9] was 4.74.

With `NC(=S)N/N=C/c1cc(COC=O)cs1` the pIC50 [1] was 6.71.

With `NC(=S)N/N=C/c1ccc(O)c(O)c1` the pIC50 [3] was < 4.40.

`CCCCOCCOc1ccc(/C=N/NC(N)=S)cc1` showed a pIC50 [3] of 6.04.

`COCCCCOc1ccc(/C=N/NC(N)=S)cc1` was tested, and the pIC50 [3] was 6.39.

`CCOc1ccc(/C=N/NC(N)=S)cc1` gave a pIC50 [3] of 5.72.

In the case of `COc1ccc(OC)c(/C=N/NC(N)=S)c1`, the pIC50 [3] was < 4.30.

`NC(=S)N/N=C/c1ccc(-c2ccccc2)s1` showed a pIC50 [1] of 6.17.

With `C/C(=N\N=C(/N)S)c1ccccc1` [PHENYL(METHYL)THIOSEMICARBAZONE] the Kis [7] was 0.83 µM and 1.4 µM, the pIC50 [8] was 5.70 and the pKi [18] was 6.42.

`CCC/C(=N\NC(N)=S)c1ccccc1` was tested, and the pIC50 [8] was > 6.00.

`NC(=S)N/N=C/c1ccc(Br)cc1` gave a pIC50 [3] of 6.55.

For `CCCCCOc1ccc(/C=N/NC(N)=S)cc1`, the pIC50 [3] was 5.96.

Molecule `CC(C)Oc1ccc(/C=N/NC(N)=S)cc1` has a pIC50 [3] of 6.05.

For `COc1cc(/C=N/NC(N)=S)ccc1O`, the pIC50 [3] was 5.25.

`NC(=S)N/N=C/c1ccc(OCCO)cc1` gave a pIC50 [3] of 6.28.

For `NC(=S)N/N=C/c1ccco1`, the pIC50 [2] was 5.63, the pKi [10] was 6.22 and the Kis [11] was 1.18 µM.

In the case of `CNC(=S)N/N=C(\C)c1ccccc1O`, the pIC50 [9] was 3.97.

`COCCOCCOc1ccc(/C=N/NC(N)=S)cc1` was tested, and the pIC50 [3] was 6.47.

`CNC(=S)N/N=C(\C)c1ccc(O)cc1O` gave a pIC50 [9] of 5.22 and a pKi [19] of 5.30.

For `CCCCC/C(=N\NC(N)=S)c1ccccc1`, the pIC50 [8] was > 6.00.

In the case of `NC(=S)N/N=C/c1cc(COC(=O)C2CCCC2)cs1`, the pIC50 [1] was 6.85.

Work on `NC(=S)N/N=C/c1cc(COCCO)cs1` yielded a pIC50 [1] of 5.85.

`NC(=S)N/N=C/c1ccccc1Cl` showed a pIC50 [12] of 4.81, a pKi [13] of 5.92 and a pIC50 [2] of 5.91.

`CNC(=S)N/N=C(\C)c1ccccc1` was tested, and the pIC50 [9] was 3.67.

For `CC(C)C/C(=N\NC(N)=S)c1ccccc1`, the pIC50 [8] was > 6.00.

Molecule `NC(=S)N/N=C/c1ccccc1` [PHENYLTHIOSEMICARBAZONE] has a pKi [20] of 5.43, a Kis [21] of 93 µM and a pKi [22] of 6.03. It also gave a pIC50 [8] of 4.99.

`CN(C)c1ccc(/C=N/NC(N)=S)cc1` gave a pIC50 [12] of 5.81, a Kis [23] of 6.49 µM and a pKi [24] of 5.75. For the same molecule, the pIC50 [2] was 5.69.

`NC(=S)N/N=C/c1cc(O)cc(O)c1` was tested, and the pIC50 [3] was < 4.52.

Work on `C=CCOc1ccc(/C=N/NC(N)=S)cc1` yielded a pIC50 [3] of 5.89.

`CCCCCC/C(=N\NC(N)=S)c1ccccc1` was tested, and the pIC50 [8] was > 6.00.

For `COCCOc1ccc(/C=N/NC(N)=S)cc1`, the pIC50 [3] was 6.12.

Molecule `CCOCc1csc(/C=N/NC(N)=S)c1` has a pIC50 [1] of 6.31.
